{"source": "patent US20040209849A1", "about": "“Use of effectors of the central cholinergic nervous system for treatment of delirium” (priority 1998, published 2004)", "system": "non-anticholinergic delirium (lithium poisoning, severe hyperactive delirium)", "experiment": "Individual case: treatment of a non-anticholinergic (lithium poisoning) delirium with orally administered rivastigmine", "type": "in vivo, human", "conditions": "patient, after 48 hours of therapy at 2×1.5 mg", "description": "Treatment of a non-anticholinergic delirium with an orally administered modern inhibitor of acetylcholine esterase, rivastigmine\nA patient had suffered from manic-depressive disease. Until recently there were no mental disintegration phenomena. After a urinary tract infection with lithium therapy of the manic-depressive condition, lithium poisoning occurred with a severe hyperactive delirium which forced the patient to be admitted to a hospital on an in-patient ward. These lithium poisoning deliria generally subside completely only after 6-8 weeks. The patient was transferred to a private clinic after 4 days and was highly psychotic, urinated in the corner of the room, talked to the lamp on the night table, hallucinated strange individuals and dwarves in the room, repeatedly fled the ward, believed that the nursing personnel wanted to kill them, was extremely agitated in motor response and restless, fumbled around with the blanket and phone cord, fell asleep repeatedly during the day, but remained up all night. The patient cried and laughed in alternation, suddenly became afraid again and again and then laughed. All these symptoms were very unstable, highly varied, but the patient was not actually responsive on the admission date. On the Trzepacz scale of delirium (Psychiatry Research, 23, (1988), […]) a score of 29 (of a possible 32) corresponding to a severe delirium was reached. […]"}
{"smiles": "CCN(C)C(=O)Oc1cccc([C@H](C)N(C)C)c1", "note": "[rivastigmine]", "values": [{"measurement": "clinical state after therapy", "value": "the patient was oriented, no longer hallucinated"}, {"measurement": "delirium score on the Trzepacz scale of delirium", "setting": "score before therapy 29 (of a possible 32)", "value": 8}]}
